Measured values published in patent publication US6348445B1, “Biologically active peptides with reduced toxicity in animals and a method for preparing same” (priority 1992, dated 2002).
Read-outs that look alike come from different tables or passages of the source. Where a SMILES comes first, the peptide text is derived from it. [ ]: non-standard residue; d: D form. The star is where a group is joined. hArg = N=C(N)NCCCC[C@H](N)C(=O)O; Octanoyl = CCCCCCCC(=O)*

Experiments:
[1] = tested on: P. aeruginosa strain ATCC 27853; format: cell-based
How it was run: (§1)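 Peptides serially diluted 1:2 to final 0.25–256 μg/ml in Mueller Hinton broth, inoculated with 1-5×10^5 CFUs/ml from mid-log culture. Incubated 16-20 hours at 37° C. MIC = lowest peptide concentration giving a clear well.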

A. viscosus = test: anaerobic anti-microbial susceptibility test (MIC); format: cell-based; conditions: 24-48 hours
[2] = tested on: E. coli ATCC strain 25922; test: Minimal Inhibitory Concentration, microtiter broth dilution; format: cell-based
How it was run: as §1

S. mutans = test: anaerobic anti-microbial susceptibility test (MIC); format: cell-based; set-up: unit not given here; conditions: 24-48 hours
C. albicans = format: cell-based
How it was run: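 Peptides serially diluted 1:2 to final 0.25–256 μg/ml; inoculum 1-5×10^5 CFU/ml from mid-log culture in full-strength Mueller Hinton broth. Incubated 16-20 h at 37° C. MIC taken as lowest peptide concentration giving a clear well.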

P. gingivalis = conditions: anaerobic, 24-48 hours
[3] = tested on: S.aureus strain ATCC 25923; test: Minimal Inhibitory Concentration, microtiter broth dilution; format: cell-based; conditions: Mueller Hinton broth, 16-20 hours at 37° C.
Source text: Table I, which follows, indicates the Minimal Inhibitory Concentration (MIC) in […] of various peptides against S.aureus strain ATCC 25923(S), P. aeruginosa strain ATCC 27853(P), E. coli ATCC strain 25922(E), and C. 4albicans (CA). […] The peptides are unsubstituted at the N-terminal; substituted with an acetyl group at the N-terminal, as indicated by Ac-; substituted with an octanoyl group at the N-terminal, as indicated by Oct-; substituted with spinogosine, as indicated by Sph-; substituted with a succinyl group, as indicated by Suc-; substituted with a hexanoyl group, as indicated by Hex-; substituted with a heptanoyl group, as indicated by Hep-; substituted with a valeryl group, as indicated by Val-; substituted with a myristryl group, as indicated by Myr-; or substituted with an ibuprofyl group, as indicated by Ibu-;
The procedure for the anti-bacterial assay is based upon the guidelines of the National Committee for Clinical Laboratory Standards, Document M7-T2, Volume 8, No. 8, 1988, which document is entirely incorporated herein by reference.
Stock solutions of peptides, with and without the appropriate substitutions, were prepared at a concentration of 512 μg/ml in sterile deionized distilled water and stored at −70° C.
The stock peptide solution was diluted in serial dilutions (1:2) down the wells of a microtiter plate so that the final concentrations of peptides in the wells were 0.25, 0.50, 1, 2, 4, 8, 16, 32, 64, 128 and 256 μg/ml. 1-5×10^5 CFUs/ml of either S. aureus ATCC 25923, E. coli ATCC 25922, P. aeruginosa ATCC 27853, or C. albicans, were added to the wells in full strength Mueller Hinton broth (BBL 11443) from a mid-log culture. The inoculum was standardized spectrophotometrically at 600 nm and was verified by colony counts. The plates were incubated for 16-20 hours at 37° C., and the minimal inhibitory concentration (MIC) for each peptide was determined. Minimal inhibitory concentration is defined as the lowest concentration of peptide which produces a clear well in the microtiter plate. The minimal inhibitory concentration of each of the peptides with and/or without the appropriate substitutions is given in Table I below.

[4] = P. aeruginosa strain ATCC 27853, Table I
[5] = E. coli ATCC strain 25922, Table I

Compound | Minimal Inhibitory Concentration P ([1]; ATCC 27853) | MIC A. viscos (A. viscosus) | Minimal Inhibitory Concentration E ([2]; ATCC strain 25922) | MIC S. mutans (S. mutans) | Minimal Inhibitory Concentration CA (C. albicans) | MIC P. gingivalis (strain) 9-14K-1 (P. gingivalis) | MIC P. gingivalis (strain) 381 (P. gingivalis) | MIC P. gingivalis (strain) 450 (P. gingivalis) | MIC P. gingivalis (strain) A7A1-28 (P. gingivalis) | MIC P. gingivalis (strain) FAY-19M-1 (P. gingivalis) | Minimal Inhibitory Concentration P [1, 4] | Minimal Inhibitory Concentration E [2, 5] | Minimal Inhibitory Concentration CA (C. albicans; C. albicans, Table I) | Minimal Inhibitory Concentration S [3]
CC[C@H](C)[C@H](NC(=O)[C@H](CCCCNC(=N)N)NC(=O)CNC(=O)[C@H](C)NC(=O)[C@@H](NC(=O)[C@H](CCCCNC(=N)N)NC(=O)[C@H](C)NC(=O)[C@@H](NC(=O)[C@H](CCCCNC(=N)N)NC(=O)CNC(=O)[C@H](C)NC(=O)[C@@H](NC(=O)[C@H](CCCCNC(=N)N)NC(=O)[C@H](C)NC(=O)[C@@H](NC(=O)[C@H](CCCCNC(=N)N)NC(=O)CNC(=O)[C@H](C)NC(=O)[C@@H](NC(=O)[C@@H](N)CCCCNC(=N)N)[C@@H](C)CC)[C@@H](C)CC)[C@@H](C)CC)[C@@H](C)CC)[C@@H](C)CC)C(=O)N[C@@H](C)C(N)=O [(SEQ ID NO: 66)-NH2, (Har Ile Ala Gly Har Ile Ala)3] (H-[hArg]IAG[hArg]IA[hArg]IAG[hArg]IA[hArg]IAG[hArg]IA-NH2) | 32 µg/mL | 8 μl/ml | 32 µg/mL | 8 | 64 µg/mL | 2 μl/ml | 16 μl/ml | 4 μl/ml | 4 μl/ml | 8 μl/ml | – | – | – | –
CCCCCCCC(=O)N[C@@H](CCCCN)C(=O)N[C@H](C(=O)N[C@@H](C)C(=O)NCC(=O)N[C@@H](CCCCN)C(=O)N[C@H](C(=O)N[C@@H](C)C(=O)N[C@@H](CCCCN)C(=O)N[C@H](C(=O)N[C@@H](C)C(=O)NCC(=O)N[C@@H](CCCCN)C(=O)N[C@H](C(=O)N[C@@H](C)C(=O)N[C@@H](CCCCN)C(=O)N[C@H](C(=O)N[C@@H](C)C(=O)NCC(=O)N[C@@H](CCCCN)C(=O)N[C@H](C(=O)N[C@@H](C)C(=O)O)[C@@H](C)CC)[C@@H](C)CC)[C@@H](C)CC)[C@@H](C)CC)[C@@H](C)CC)[C@@H](C)CC [Oct-(SEQ ID NO: 27)-OH] (Octanoyl-KIAGKIAKIAGKIAKIAGKIA-OH) | 8 µg/mL | 32 μl/ml | 4 µg/mL | 16 | 32 µg/mL | 2 μl/ml | 2 μl/ml | 1 μl/ml | 1 μl/ml | 2 μl/ml | – | – | – | –
CCCCCCCC(=O)N[C@@H](CCCCNC(=N)N)C(=O)N[C@H](C(=O)N[C@@H](C)C(=O)NCC(=O)N[C@@H](CCCCNC(=N)N)C(=O)N[C@H](C(=O)N[C@@H](C)C(=O)N[C@@H](CCCCNC(=N)N)C(=O)N[C@H](C(=O)N[C@@H](C)C(=O)NCC(=O)N[C@@H](CCCCNC(=N)N)C(=O)N[C@H](C(=O)N[C@@H](C)C(=O)N[C@@H](CCCCNC(=N)N)C(=O)N[C@H](C(=O)N[C@@H](C)C(=O)NCC(=O)N[C@@H](CCCCNC(=N)N)C(=O)N[C@H](C(=O)N[C@@H](C)C(N)=O)[C@@H](C)CC)[C@@H](C)CC)[C@@H](C)CC)[C@@H](C)CC)[C@@H](C)CC)[C@@H](C)CC [Oct-(SEQ ID NO: 66)-NH2] (Octanoyl-[hArg]IAG[hArg]IA[hArg]IAG[hArg]IA[hArg]IAG[hArg]IA-NH2) | 16 µg/mL | 16 μl/ml | 8 µg/mL | 32 | 256 µg/mL | 2 μl/ml | 4 μl/ml | 2 μl/ml | 8 μl/ml | 2 μl/ml | – | – | – | –
CCCCCCCC(=O)N[C@@H](CCCCN)C(=O)N[C@H](C(=O)N[C@@H](C)C(=O)N[C@@H](CCCCN)C(=O)N[C@@H](CCCCN)C(=O)N[C@H](C(=O)N[C@@H](C)C(=O)N[C@@H](CCCCN)C(=O)N[C@H](C(=O)N[C@@H](C)C(=O)N[C@@H](CCCCN)C(=O)N[C@@H](CCCCN)C(=O)N[C@H](C(=O)N[C@@H](C)C(=O)N[C@@H](CCCCN)C(=O)N[C@H](C(=O)N[C@@H](C)C(=O)N[C@@H](CCCCN)C(=O)N[C@@H](CCCCN)C(=O)N[C@H](C(=O)N[C@@H](C)C(=O)O)[C@@H](C)CC)[C@@H](C)CC)[C@@H](C)CC)[C@@H](C)CC)[C@@H](C)CC)[C@@H](C)CC [Oct-(SEQ ID NO: 86)-OH] (Octanoyl-KIAKKIAKIAKKIAKIAKKIA-OH) | – | 32 μl/ml | – | 16 | – | 1 μl/ml | 1 μl/ml | 1 μl/ml | 1 μl/ml | 1 μl/ml | 4 µg/mL | 2 µg/mL | 128 µg/mL | 8 µg/mL
CCCCCCCC(=O)N[C@@H](CCCCN)C(=O)N[C@@H](CCCCN)C(=O)N[C@@H](CC(C)C)C(=O)N[C@@H](C)C(=O)N[C@@H](CCCCN)C(=O)N[C@@H](CC(C)C)C(=O)N[C@@H](C)C(=O)N[C@@H](CCCCN)C(=O)N[C@@H](CCCCN)C(=O)N[C@@H](CC(C)C)C(=O)N[C@@H](C)C(N)=O [Oct-(SEQ ID NO: 123)-NH2] (Octanoyl-KKLAKLAKKLA-NH2) | – | – | – | – | – | – | – | – | – | – | 16 µg/mL | 32 µg/mL | 32 µg/mL | 32 µg/mL
CCCCCCCC(=O)N[C@@H](CCCCN)C(=O)N[C@@H](CC(C)C)C(=O)N[C@@H](C)C(=O)N[C@@H](CCCCN)C(=O)N[C@@H](CC(C)C)C(=O)N[C@@H](C)C(=O)N[C@@H](CCCCN)C(=O)N[C@@H](CCCCN)C(=O)N[C@@H](CC(C)C)C(=O)N[C@@H](C)C(N)=O [Oct-(SEQ ID NO: 124)-NH2] (Octanoyl-KLAKLAKKLA-NH2) | – | – | – | – | – | – | – | – | – | – | 64 µg/mL | 256 µg/mL | 128 µg/mL | 128 µg/mL
CCCCCCCC(=O)N[C@@H](CCCCN)C(=O)N[C@@H](Cc1c[nH]c2ccccc12)C(=O)N[C@@H](CCCCN)C(=O)N[C@@H](CC(C)C)C(=O)N[C@@H](Cc1ccccc1)C(=O)N[C@@H](CCCCN)C(=O)N[C@@H](CCCCN)C(=O)N[C@H](C(=O)N[C@@H](CCC(=O)O)C(=O)N[C@@H](CCCCN)C(=O)N[C@H](C(N)=O)C(C)C)[C@@H](C)CC [Oct-(SEQ ID NO: 136)-NH2] (Octanoyl-KWKLFKKIEKV-NH2) | 64 µg/mL | – | – | – | 256 µg/mL | – | – | – | – | – | – | 256 µg/mL | – | 256 µg/mL
CCCCCCCC(=O)N[C@@H](CCCCN)C(=O)N[C@H](C(=O)N[C@@H](C)C(=O)N[C@@H](CCCCN)C(=O)N[C@@H](CCCCN)C(=O)N[C@H](C(=O)N[C@@H](C)C(=O)N[C@@H](CCCCN)C(=O)N[C@H](C(=O)N[C@@H](C)C(=O)N[C@@H](CCCCN)C(=O)N[C@@H](CCCCN)C(=O)N[C@H](C(=O)N[C@@H](C)C(N)=O)[C@@H](C)CC)[C@@H](C)CC)[C@@H](C)CC)[C@@H](C)CC [Oct-(SEQ ID NO: 153)-NH2] (Octanoyl-KIAKKIAKIAKKIA-NH2) | – | – | – | – | – | – | – | – | – | – | 8 µg/mL | 32 µg/mL | 64 µg/mL | 8 µg/mL
